Reference: patent publication US11352391B2, “Compositions for inducing urinary voiding and defecation” (Dignify Therapeutics, LLC, priority 2017, dated 2022)
Read-outs that look alike come from different tables or passages of the source. Where a SMILES comes first, the peptide text is derived from it. Where no end group is shown, it is not given here.

Experiments:
[1] = target: T1, recombinant hNK2R expressed in CHO cells (Homo sapiens, UniProt P21452); experiment: Intracellular calcium mobilization (FLIPR) in CHO-hNK2 cells; format: cell-based; conditions: for EC50: calcium mobilization, CHO-hNK2 cells, read-out: hNK2 EC50; for hNK2 selectivity ratio: ratio of EC50s hNK1R/hNK2R
T1 sequence (P21452 1-398): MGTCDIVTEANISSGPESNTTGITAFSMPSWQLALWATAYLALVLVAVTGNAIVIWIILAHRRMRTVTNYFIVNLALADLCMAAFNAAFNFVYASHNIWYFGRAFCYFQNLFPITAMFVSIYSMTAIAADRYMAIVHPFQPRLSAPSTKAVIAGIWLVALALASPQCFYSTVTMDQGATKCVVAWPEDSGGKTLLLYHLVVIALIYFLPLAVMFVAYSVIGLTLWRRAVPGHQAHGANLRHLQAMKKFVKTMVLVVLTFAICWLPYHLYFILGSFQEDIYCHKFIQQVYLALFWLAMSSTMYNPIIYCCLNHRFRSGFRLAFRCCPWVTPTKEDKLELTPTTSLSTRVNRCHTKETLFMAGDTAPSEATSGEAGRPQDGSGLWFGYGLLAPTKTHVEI
Method: (§1) CHO-hNK1 and CHO-hNK2 cells were seeded into black walled clear-bottom 384-well plates) at a density of 10,000 and 15,000 cells per well in 50 μL culture media, respectively, and grown overnight at 37° C. in a humidified CO2-incubator. Cells were washed in washing buffer using the EMBLA 384 instrument, leaving 20 μL of buffer per well after the final aspiration. Cells were then incubated at 37° C. with the cytoplasmic Ca2+ indicator Fluo-4 AM (final concentration 1 μM) in assay buffer (20 mM HEPES, 145 mM NaCl, 5 mM KCl, 5.5 mM glucose, 1 mM MgCl2 and 2 mM CaCl2, pH 7.4, 0.05% Pluronic F-127 and 0.1% BSA) containing 2.5 mM probenecid for […] (cell loading). Cells were then washed 3 times in washing buffer (20 mM HEPES, 145 mM NaCl, 5 mM KCl, 5.5 mM glucose, 1 mM MgCl2 and 2 mM CaCl2, pH 7.4 and 2.5 mM probenecid) using the EMBLA 384 instrument, leaving 30 μL of buffer in each well after the last wash. Loaded cell plates were transferred to the FLIPR machine and calcium responses were monitored as described below. A dual read-out FLIPR protocol was used, allowing for characterization of both agonist and antagonist profiles. For quality control, in each compound plate the signal was monitored by evaluating the responses to the reference standards (NKA and Substance P).
(§2) Concentration response curves of compounds were run in duplicate on two different occasions from the same stock solutions. Test solutions were prepared from 10 mM stock solutions in DMSO and 1 μL of each solution was stamped into V-bottom assay plates containing 49 μL assay buffer. The final concentration of DMSO was 0.5% in each well.

[2] = target: T2, human NK2 Receptor (hNK2R) (Homo sapiens, UniProt P21452); experiment: [125I]-NKA radioligand competition binding to human recombinant NK2Rs (CHO-hNK2 membranes); conditions: for hNK2 selectivity ratio: ratio of Kis hNK1R/hNK2R
T2 sequence (P21452 1-398): T1 sequence (P21452 1-398)
Method: (§3) After removal of the supernatant the cell pellet was washed and collected by re-suspension in PBS and centrifugation.
(§4) Frozen pellets were thawed and homogenized in 10 volumes (w/v) of membrane preparation buffer (50 mM HEPES pH 7.4, 1 mM EDTA, 50 μg/mL bacitracin and protease inhibitors) using a Polytron Ultraturrax (twice for 15 s per cycle). […] Protein concentration was determined using BioRad Protein Assay (Milan, Italy) with a BSA standard curve.

[3] = target: recombinant hNK1R expressed in CHO cells (Homo sapiens, UniProt P25103); experiment: Intracellular calcium mobilization (FLIPR) in CHO-hNK1 cells; format: cell-based; conditions: calcium mobilization, CHO-hNK1 cells; read-out: hNK1 EC50
Sequence of recombinant hNK1R expressed in CHO cells (P25103 whole entry): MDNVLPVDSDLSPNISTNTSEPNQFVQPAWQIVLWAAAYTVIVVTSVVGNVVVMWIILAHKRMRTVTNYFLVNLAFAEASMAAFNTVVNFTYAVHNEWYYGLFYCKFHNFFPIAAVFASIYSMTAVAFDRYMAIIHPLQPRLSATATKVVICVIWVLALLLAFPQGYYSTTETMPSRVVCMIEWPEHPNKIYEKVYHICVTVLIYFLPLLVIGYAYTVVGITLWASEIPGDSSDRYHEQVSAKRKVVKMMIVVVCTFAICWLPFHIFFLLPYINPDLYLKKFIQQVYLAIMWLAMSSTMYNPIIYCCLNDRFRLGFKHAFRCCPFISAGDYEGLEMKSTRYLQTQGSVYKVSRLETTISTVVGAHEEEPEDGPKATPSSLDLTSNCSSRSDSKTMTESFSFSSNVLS
Method: as §1, §2

[4] = target: human NK1 Receptor (hNK1R) (Homo sapiens, UniProt P25103); experiment: [3H]-septide radioligand competition binding to human recombinant NK1Rs (CHO-hNK1 membranes)
Sequence of human NK1 Receptor (hNK1R) (P25103 whole entry): as above
Method: as §3, §4

[5] = Saline solubility of heptapeptides; format: physicochemical
Method: Heptapeptides A-K shown below in Table 1 (SEQ ID NOs: 1-11) were synthesized according to standard Fmoc-mediated solid-phase techniques and purified under typical C18 reverse-phase conditions.
Compounds D-K were considered to be insoluble in saline (<1 mg/mL).

[6] = displacement of 0.1 nM [125I]-NKA, CHO-hNK2 membranes, read-out: hNK2 binding Ki
[7] = displacement of 5.0 nM [3H]-septide, CHO-hNK1 membranes, read-out: hNK1 binding Ki

## CSCC[C@H](NC(=O)[C@H](CC(C)C)N(C)C(=O)CNC(=O)[C@@H](NC(=O)[C@H](Cc1ccccc1)NC(=O)[C@H](CCCNC(=N)N)NC(=O)[C@@H](N)CC(=O)O)C(C)C)C(N)=O [C, Asp-Arg-Phe-Val-Gly-(NMe-Leu)-Met-NH2] (HELM PEPTIDE1{D.R.F.V.G.[meL].M.[am]}$$$$V2.0; N-terminus assumed)
[1]
  EC50: 0.16 nM
  hNK2 selectivity ratio: 2
[2]; [6]
  Ki: 0.12 nM
[2]
  hNK2 selectivity ratio: 167.49
[3]
  EC50: 0.3 nM
[4]; [7]
  Ki: 20.9 nM
[5]
  solubility: > 20000 µg/mL

## CCCC[C@H](NC(=O)[C@H](CC(C)C)NC(=O)CNC(=O)[C@@H](NC(=O)[C@H](Cc1ccccc1)NC(=O)[C@H](CCCNC(=N)N)NC(=O)[C@@H](N)CC(=O)O)C(C)C)C(N)=O [J, Asp-Arg-Phe-Val-Gly-Leu-Nle-NH2] (HELM PEPTIDE1{D.R.F.V.G.L.[Nle].[am]}$$$$V2.0; N-terminus assumed)
[1]
  EC50: 0.2 nM
  hNK2 selectivity ratio: 9
[2]
  Ki: 1.74 nM
  hNK2 selectivity ratio: 72.53
[3]
  EC50: 1.71 nM
[4]
  Ki: 126 nM
[5]
  solubility: < 1000 µg/mL

## CSCC[C@H](NC(=O)[C@H](CC(C)C)NC(=O)CCNC(=O)[C@@H](NC(=O)[C@H](Cc1ccccc1)NC(=O)[C@H](CCCNC(=N)N)NC(=O)[C@@H](N)CC(=O)O)C(C)C)C(N)=O [I, Asp-Arg-Phe-Val-(β-Ala)-Leu-Met-NH2] (HELM PEPTIDE1{D.R.F.V.[bAla].L.M.[am]}$$$$V2.0; N-terminus assumed)
[1]
  EC50: 0.15 nM
  hNK2 selectivity ratio: 12
[2]; [6]
  Ki: 0.88 nM
[2]
  hNK2 selectivity ratio: 108.27
[3]
  EC50: 1.83 nM
[4]; [7]
  Ki: 95.5 nM
[5]
  solubility: < 1000 µg/mL

## CSCC[C@H](NC(=O)[C@H](CC(C)C)NC(=O)CNC(=O)[C@@H](NC(=O)[C@H](Cc1ccccc1)NC(=O)[C@H](CCCCN)NC(=O)[C@@H](N)CC(=O)O)C(C)C)C(N)=O [D, Asp-Lys-Phe-Val-Gly-Leu-Met-NH2]
[1]
  EC50: 0.09 nM
[3]
  EC50: 0.41 nM
[5]
  solubility: < 1000 µg/mL

## DRFVGLM-NH2 [H, Asp-Arg-Phe-Val-Gly-Leu-Met-NH2]
[1]
  EC50: 0.19 nM
  hNK2 selectivity ratio: 0.8
[2]
  Ki: 0.31 nM
  hNK2 selectivity ratio: 27.10
[3]
  EC50: 0.16 nM
[4]
  Ki: 8.32 nM
[5]
  solubility: < 1000 µg/mL

## CCCC[C@H](NC(=O)[C@H](CC(C)C)NC(=O)CNC(=O)[C@@H](NC(=O)[C@H](Cc1ccccc1)NC(=O)[C@H](CCCCN)NC(=O)[C@@H](N)CC(=O)O)C(C)C)C(N)=O [F, Asp-Lys-Phe-Val-Gly-Leu-Nle-NH2]
[1]
  EC50: 0.38 nM
  hNK2 selectivity ratio: 6
[2]
  Ki: 2.75 nM
  hNK2 selectivity ratio: 81.47
[3]
  EC50: 2.36 nM
[4]
  Ki: 224 nM
[5]
  solubility: < 1000 µg/mL
